Laboratory results as given in patent US20030176479A1, “Use of selective EP4 receptor agonists for the treatment of liver failure, loss of patency of the ductus arteriosus, glaucoma or ocular hypertension” (priority 2002, published 2003).

These compounds were tested against T1, rat EP4 receptor (Rattus norvegicus, UniProt P43114) (assay: Cyclic AMP elevation in 293S cell lines stably overexpressing recombinant rat EP4 receptors). Conditions: 293S cells expressing rat EP4, 1 mM IBMX, 12 minutes at 37° C.; read-out: EC50 in the cAMP (rat EP4) elevation assay.
T1 construct: expressed in transfected cells
Type: cell-based
From the text: Determination of Cyclic AMP Elevation in 293S Cell Lines Stably Overexpressing Recombinant Rat EP4 Receptors Assay
cDNA representing the complete open reading frame of the rat EP4 receptor is generated by reverse transcriptase polymerase chain reaction using oligonucleotide primers based on published sequences. The full length coding sequence for the rat EP4 receptor is made in accordance with the procedure in Sando et al., Biochem. Biophys. Res. Comm. 1994, 200, 1329-1333, and RNA from rat kidney (EP4) as templates. 293S cells are transfected with the cloned rat EP4 receptor in pcDNA3 by lipid mediated transfection. Stable cell lines expressing the rat EP4 receptor are established following selection of transfected cells with Geneticin® (Invitrogen Corporation, Carlsbad, Calif.).
Clonal cell lines expressing the maximal number of receptors are chosen following a whole cell ^3H-PGE2 binding assay using unlabeled PGE2 as a competitor. […] Constitutive expression of the receptor in parental 293-S cells is negligible. A stable cell line containing the rat EP4 receptor is grown in Dulbecco's Mosified Eagle Medium/F12 (DMEM/F12) containing 10% fetal bovine serum and G418 (500 μg/ml) to 80% confluency.
cAMP responses in the 293-S/EP4 lines are determined by detaching cells from culture flasks in 1 ml of calcium (Ca++) and magnesium (Mg++) deficient phosphate buffered saline (PBS) via vigorous pounding and then rinsing the cells with calcium (Ca++) and magnesium (Mg++) deficient phosphate buffered saline (PBS). The cells are resuspended in MEM (Minimum Essential Medium), 1% BSA (bovine serum albumin), 50 mM HEPES (N-[2-Hydroxyethyl]piperazine-N′-[2-ethanesulfonic acid]) at 37° C. The cell suspension is counted on a hemacytometer and diluted by adding MEM (Minimum Essential Medium) to a final concentration of 1×10^6 cells/ml, and adding 3-isobutyl-1-methylxanthine (IBMX) to a final concentration of 1 mM. 200 microliters of cell suspension is immediately aliquoted into individual tubes and incubated for 10 minutes, uncovered, at 37° C., 5% CO2, 95% relative humidity. The compound of Formula I or II to be tested in either dimethylsulfoxide (DMSO) or ethanol is then added to cells at 1:100 dilutions such that the final DMSO or ethanol concentration is 1%. Typically, the cells are treated with 6-8 different concentrations (in 1 log increments, such as those described below) of the compound of Formula I or II. Typical concentrations of the compound of Formula I or II in this assay are between 10^−5M to 10^−10M. For example, a six point compound dose response assay tests the compound of Formula I or II at concentrations of 10^−5M, 10^−6M, 10^−7M, 10^−8M, 10^−9M and 10^—10M. Immediately after adding the test compound, the tubes are covered, mixed by inverting two times, and incubated at 37° C. for 12 minutes. Samples are then lysed by incubation at 100° C. for 10 minutes and immediately cooled on ice for 5 minutes to approximately 4° C. Cellular debris is pelleted by centrifugation at 3500×g for 5 minutes at approximately 4° C., and cleared lysates are transferred to fresh tubes. cAMP concentrations are determined using a commercially available ^125I-cAMP radioimmunoassay (RIA) kit (NEK-033, Perkin-Elmer Life Sciences, Inc., Boston, Mass.). The cleared lysates are diluted 1:100 in cAMP RIA assay buffer (included in kit) and centrifuged again. 50 microliters of the resulting supernatant is transferred to a 12×75 mm glass tube and data is collected by scintillation counting using a Wallac Cobra II Gamma Counter (Perkin-Elmer Wallac, Inc., Gaithersburg, Md.). EC50 calculations are performed on a calculator using linear regression analysis on the linear portion of the dose response curves or using Data Fitter.

T1 sequence (P43114 whole entry): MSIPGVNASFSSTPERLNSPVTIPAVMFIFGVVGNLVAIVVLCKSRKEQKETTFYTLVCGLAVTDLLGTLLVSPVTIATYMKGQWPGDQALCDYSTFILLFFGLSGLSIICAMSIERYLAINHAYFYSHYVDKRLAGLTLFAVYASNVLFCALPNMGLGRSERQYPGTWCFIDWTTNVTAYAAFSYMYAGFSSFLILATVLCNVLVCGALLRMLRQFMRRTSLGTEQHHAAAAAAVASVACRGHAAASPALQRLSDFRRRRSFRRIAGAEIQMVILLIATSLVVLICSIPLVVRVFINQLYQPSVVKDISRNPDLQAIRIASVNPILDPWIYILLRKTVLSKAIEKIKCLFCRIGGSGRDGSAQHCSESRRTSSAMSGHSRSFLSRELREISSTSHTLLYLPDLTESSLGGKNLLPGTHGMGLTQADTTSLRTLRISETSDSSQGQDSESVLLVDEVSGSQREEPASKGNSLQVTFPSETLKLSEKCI

**Q.** How did the EC50 turn out when `O=C(O)CCCCCCN1C(=O)CC[C@@H]1CC[C@@H](O)Cc1cccc(Cl)c1` [Example 1, 7-{2S-[4-(3-Chloro-phenyl)-3R-hydroxy-butyl]-5-oxo-pyrrolidin-1-yl}-heptanoic acid] was run?
**A.** Its EC50 is 0.0088 µM.

**Q.** For `O=C(O)CCCCCCN1C(=O)CC[C@@H]1CC[C@@H](O)Cc1cccc(C(F)(F)F)c1` [Example 2, 7-{2S-[3R-hydroxy-4-(3-trifluoromethyl-phenyl)-butyl]-5-oxo-pyrrolidin-1-yl}-heptanoic acid], which EC50 is on record?
**A.** Its EC50 is 0.0132 µM.

**Q.** With `O=C1CC[C@H](CCC(O)Cc2cccc(Cl)c2)N1CCCCCCc1nn[nH]n1` (stereo partly drawn) [Example 3, 5S-[4-(3-Chloro-phenyl)-3-hydroxy-butyl]-1-[6-(2H-tetrazol-5-yl)-hexyl]-pyrrolidin-2-one] as the compound, how does the EC50 read?
**A.** The EC50 was 0.0331 µM.

**Q.** For `O=C1CC[C@H](CC[C@@H](O)Cc2cccc(C(F)(F)F)c2)N1CCCCCCc1nn[nH]n1` [Example 4, 5S-[3R-Hydroxy-4-(3-trifluoromethyl-phenyl)-butyl]-1-[6-(2H-tetrazol-5-yl)-hexyl]-pyrrolidin-2-one], which EC50 is on record?
**A.** The EC50 was 0.0702 µM.

**Q.** Which EC50 does the source give for `O=C1CCC(CCC(O)Cc2cccc(-c3ccccc3)c2)N1CCCCCCc1nn[nH]n1` (stereo not drawn) [Example 6, 5-(4-Biphenyl-3-yl-3-hydroxy-butyl)-1-[6-(2H-tetrazol-5-yl)-hexyl]-pyrrolidin-2-one] here?
**A.** Its EC50 is 0.175 µM.

**Q.** For `O=C(O)CCCCCCN1C(=O)CCC1CCC(O)Cc1ccccc1` (stereo not drawn) [Example 9, 7-(2-(3-hydroxy-4-phenyl-butyl)-5-oxo-pyrrolidin-1-yl)-heptanoic acid], which EC50 is on record?
**A.** Its EC50 is 0.0325 µM.
